Measurements published in patent publication US8892197B2, “Method and apparatus to control conduction through the heart to treat cardiac conditions” (Medtronic, Inc., priority 2005, dated 2014).

How the values were obtained:
[1] = tested on: AVN conduction; assay: AV block duration after ACH bolus, direct AVN injection vs. intravenous, anesthetized canines; type: in vivo
From the text: (§1) This study evaluated the effect of locally administered acetylcholine (ACH) on AVN conduction and refractoriness properties during sinus rhythm and AF. Canines (n=7) were anesthetized, and instrumented to assess atrial and ventricular electrophysiology as well as arterial blood pressure. A custom drug delivery catheter was fixed into the AVN region using a combination of standard electrophysiological mapping techniques and image guided therapy via a cardiac navigation system.

[2] = tested on: AVN conduction and refractoriness; assay: Incremental ACH infusion into the AVN: ventricular rate during electrically induced AF, AVN refractoriness, intervals, blood pressure; type: in vivo, Canines; settings: for Ventricular rate during electrically induced AF: infusion into AVN, decreased from 182±32
From the text: as §1
Subsequently, incremental doses of ACH starting at 10 ug/min were infused into the AVN until complete atrioventricular heart block (AVB) was observed.

[3] = Intravenous Bolus (n = 5), identical dose

Q: Which results are given for `CC(=O)OCC[N+](C)(C)C` [ACH, acetylcholine]?
A: AV Block III duration ([1]; Direct AVN Bolus (n = 6)): 12.30 ± 4.72 min; Overall AV Block duration (AV block I, II and III) ([1]; Direct AVN Bolus (n = 6)): 41.19 ± 27.14 min; AV Block III duration [1, 3]: 0.00 ± 0.00 min; Overall AV Block duration (AV block I, II and III) [1, 3]: 0.31 ± 0.43 min; PP intervals, HV intervals and blood pressure ([2]; ACH dose producing first AVB): remained unchanged; Time to full reversal of observed effects after stopping ACH infusion ([2]; after stopping infusion into AVN): ≤ 20 min; Ventricular rate during electrically induced AF ([2]; dosage inducing first degree AVB, p<0.05): 77±28 bpm; Ventricular rate during electrically induced AF ([2]; dosage inducing third degree AVB, p<0.05): 28±8 bpm; AVN effective refractory period (ERP) ([2]; first degree AVB dose, pacing cycle length 400 msec, increased from 186±37, p=0.06): 282 ± 33 ms; Wenckebach cycle length ([2]; first degree AVB dose, increased from 271±29, p<0.05): 378 ± 58 ms
